Molecular target: T1, estrogen receptor (Homo sapiens, UniProt P03372)
T1 construct: endogenous in cells; host or cells: ECC-1 cells
T1 sequence (P03372 1-595): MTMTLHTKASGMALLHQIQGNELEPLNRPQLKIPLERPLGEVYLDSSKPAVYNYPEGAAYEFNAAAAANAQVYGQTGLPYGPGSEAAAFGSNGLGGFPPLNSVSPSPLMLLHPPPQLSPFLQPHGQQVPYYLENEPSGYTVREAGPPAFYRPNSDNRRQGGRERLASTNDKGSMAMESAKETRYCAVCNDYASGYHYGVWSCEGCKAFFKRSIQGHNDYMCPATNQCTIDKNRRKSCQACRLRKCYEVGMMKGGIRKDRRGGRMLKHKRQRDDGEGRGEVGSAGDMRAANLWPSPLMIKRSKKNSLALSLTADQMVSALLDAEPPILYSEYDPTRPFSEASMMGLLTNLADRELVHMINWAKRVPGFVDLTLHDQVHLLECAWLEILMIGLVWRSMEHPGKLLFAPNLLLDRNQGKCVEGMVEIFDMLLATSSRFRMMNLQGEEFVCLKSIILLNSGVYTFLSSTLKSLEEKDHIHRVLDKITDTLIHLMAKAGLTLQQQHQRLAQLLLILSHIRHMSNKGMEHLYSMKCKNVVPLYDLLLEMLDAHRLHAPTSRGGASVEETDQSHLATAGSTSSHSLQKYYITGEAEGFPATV
Assay: Alkaline phosphatase (AP) assay in ECC-1 cells, agonist mode (no E2) and antagonist mode (500 pM E2)
Type: cell-based
Conditions: 3 days, AP activity normalized to 500 pM E2 alone, agonist mode without E2, antagonist mode with 500 pM E2
Method in brief: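 ECC-1 cells in hormone-depleted medium treated 3 days with compound alone (agonist mode) or with 500 pM E2 (antagonist mode). Alkaline phosphatase read by p-nitrophenyl phosphate hydrolysis, 40 min at 42° C, A405. Activity normalized to 500 pM E2 alone.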

| Compound | Activity (estrogen receptor modulation, agonism and antagonism) |
| --- | --- |
| C[C@@H]1Cc2c([nH]c3ccccc23)[C@@H](c2ccc(CC3CN(CC4COC4)C3)s2)N1CC(C)(C)F [Example I-24, (1S,3R)-2-(2-fluoro-2-methylpropyl)-3-methyl-1-(5-((1-(oxetan-3-ylmethyl)azetidin-3-yl)methyl)thiophen-2-yl)-2,3,4,9-tetrahydro-1H-pyrido[3,4-b]indole] | ++ (estrogen receptor antagonism having (i) between 10% and 80% increase in the E2-normalized signal in the AP assay (agonist mode) and (ii) between 10% and 80% reduction in the E2-normalized signal in the AP assay (antagonist mode)) |
| CCCN1CC(Cc2cnc([C@@H]3c4[nH]c5ccccc5c4C[C@@H](C)N3CC(F)(F)F)s2)C1 [Example I-37, 2-[(1S,3R)-3-methyl-2-(2,2,2-trifluoroethyl)-1,3,4,9-tetrahydropyrido[3,4-b]indol-1-yl]-5-[(1-propylazetidin-3-yl)methyl]thiazole] | ++ (estrogen receptor antagonism having (i) between 10% and 80% increase in the E2-normalized signal in the AP assay (agonist mode) and (ii) between 10% and 80% reduction in the E2-normalized signal in the AP assay (antagonist mode)) |
| C[C@@H]1Cc2c([nH]c3ccccc23)[C@@H](c2ccc(CC3CN(CCCF)C3)s2)N1CC(F)(F)C(F)(F)F [Example I-28, (1S,3R)-1-(5-((1-(3-fluoropropyl)azetidin-3-yl)methyl)thiophen-2-yl)-3-methyl-2-(2,2,3,3,3-pentafluoropropyl)-2,3,4,9-tetrahydro-1H-pyrido[3,4-b]indole] | ++ (estrogen receptor antagonism having (i) between 10% and 80% increase in the E2-normalized signal in the AP assay (agonist mode) and (ii) between 10% and 80% reduction in the E2-normalized signal in the AP assay (antagonist mode)) |
| C[C@@H]1Cc2c([nH]c3ccccc23)[C@@H](c2ccc(CC3CN(CCC(F)(F)F)C3)s2)N1CC(C)(C)F [Example I-15, 3-({5-[(1S,3R)-2-(2-fluoro-2-methylpropyl)-3-methyl-1H,2H,3H,4H,9H-pyrido[3,4-b]indol-1-yl]thiophen-2-yl}methyl)-1-(3,3,3-trifluoropropyl)azetidine] | ++ (estrogen receptor antagonism having (i) between 10% and 80% increase in the E2-normalized signal in the AP assay (agonist mode) and (ii) between 10% and 80% reduction in the E2-normalized signal in the AP assay (antagonist mode)) |
| C[C@@H]1Cc2c([nH]c3ccccc23)[C@@H](c2ccc(CC3CN(CCC#N)C3)s2)N1CC(F)(F)CO [Example I-57] | ++ (estrogen receptor antagonism having (i) between 10% and 80% increase in the E2-normalized signal in the AP assay (agonist mode) and (ii) between 10% and 80% reduction in the E2-normalized signal in the AP assay (antagonist mode)) |
| C[C@@H]1Cc2c([nH]c3ccccc23)[C@@H](c2ncc(CC3CN(CCCF)C3)s2)N1CC(F)F [Example I-31] | ++ (estrogen receptor antagonism having (i) between 10% and 80% increase in the E2-normalized signal in the AP assay (agonist mode) and (ii) between 10% and 80% reduction in the E2-normalized signal in the AP assay (antagonist mode)) |
| C[C@@H]1Cc2c([nH]c3ccccc23)[C@@H](c2cnc(N[C@H]3CCN(CCCF)C3)s2)N1CC(F)(F)CO [Example I-73, 2,2-difluoro-3-[(1S,3R)-1-[2-[[(3S)-1-(3-fluoropropyl)pyrrolidin-3-yl]amino]thiazol-5-yl]-3-methyl-1,3,4,9-tetrahydropyrido[3,4-b]indol-2-yl]propan-1-ol] | ++ (estrogen receptor antagonism having (i) between 10% and 80% increase in the E2-normalized signal in the AP assay (agonist mode) and (ii) between 10% and 80% reduction in the E2-normalized signal in the AP assay (antagonist mode)) |
| C[C@@H]1Cc2c([nH]c3ccccc23)[C@@H](c2cnc(C[C@H]3CCN(CCCF)C3)s2)N1CC(F)(F)F [Example I-33, 2-(((R)-1-(3-fluoropropyl)pyrrolidin-3-yl)methyl)-5-((1S,3R)-3-methyl-2-(2,2,2-trifluoroethyl)-2,3,4,9-tetrahydro-1H-pyrido[3,4-b]indol-1-yl)thiazole] | ++ (estrogen receptor antagonism having (i) between 10% and 80% increase in the E2-normalized signal in the AP assay (agonist mode) and (ii) between 10% and 80% reduction in the E2-normalized signal in the AP assay (antagonist mode)) |
| C[C@@H]1Cc2c([nH]c3ccccc23)[C@@H](c2cnc(CC3CN(CCCF)C3)s2)N1CC(F)(F)CO [Example I-40, 2,2-difluoro-3-[(1S,3R)-1-[2-[[1-(3-fluoropropyl)azetidin-3-yl]methyl]thiazol-5-yl]-3-methyl-1,3,4,9-tetrahydropyrido[3,4-b]indol-2-yl]propan-1-ol] | +++ (estrogen receptor antagonism (i) with pIC50 greater than 7.5 and at least a 10% reduction in the E2-normalized signal in the AP assay (antagonist mode); and no more than 10% increase in E2-normalized signal in the AP assay (agonist mode)) |
| CCCN1CC(Cc2ccc([C@@H]3c4[nH]c5ccccc5c4C[C@@H](C)N3CC(C)(C)F)s2)C1 [Example I-1, 3-({5-[(1S,3R)-2-(2-fluoro-2-methylpropyl)-3-methyl-1H,2H,3H,4H,9H-pyrido[3,4-b]indol-1-yl]thiophen-2-yl}methyl)-1-propylazetidine] | ++ (estrogen receptor antagonism having (i) between 10% and 80% increase in the E2-normalized signal in the AP assay (agonist mode) and (ii) between 10% and 80% reduction in the E2-normalized signal in the AP assay (antagonist mode)) |
| C[C@@H]1Cc2c([nH]c3ccccc23)[C@@H](c2cnc(CC3CN(CCCF)C3)s2)N1CC(C)(C)F [Example I-14, 5-[(1S,3R)-2-(2-fluoro-2-methylpropyl)-3-methyl-1H,2H,3H,4H,9H-pyrido[3,4-b]indol-1-yl]-2-{[1-(3-fluoropropyl)azetidin-3-yl]methyl}-1,3-thiazole] | ++ (estrogen receptor antagonism having (i) between 10% and 80% increase in the E2-normalized signal in the AP assay (agonist mode) and (ii) between 10% and 80% reduction in the E2-normalized signal in the AP assay (antagonist mode)) |
| C[C@@H]1Cc2c([nH]c3ccccc23)[C@@H](c2sc(CC3CN(CCCF)C3)cc2F)N1CC(C)(C)F [Example I-12, 3-({4-fluoro-5-[(1S,3R)-2-(2-fluoro-2-methylpropyl)-3-methyl-1H,2H,3H,4H,9H-pyrido[3,4-b]indol-1-yl]thiophen-2-yl}methyl)-1-(3-fluoropropyl)azetidine] | ++ (estrogen receptor antagonism having (i) between 10% and 80% increase in the E2-normalized signal in the AP assay (agonist mode) and (ii) between 10% and 80% reduction in the E2-normalized signal in the AP assay (antagonist mode)) |
| C[C@@H]1Cc2c([nH]c3ccccc23)[C@@H](c2nnc(CC3CN(CCCF)C3)s2)N1CC(C)(C)F [Example I-52, 2-((1S,3R)-2-(2-fluoro-2-methylpropyl)-3-methyl-2,3,4,9-tetrahydro-1H-pyrido[3,4-b]indol-1-yl)-5-((1-(3-fluoropropyl)azetidin-3-yl)methyl)-1,3,4-thiadiazole] | ++ (estrogen receptor antagonism having (i) between 10% and 80% increase in the E2-normalized signal in the AP assay (agonist mode) and (ii) between 10% and 80% reduction in the E2-normalized signal in the AP assay (antagonist mode)) |
| CCCN1CC[C@@H](Cc2ncc([C@@H]3c4[nH]c5ccccc5c4C[C@@H](C)N3CC(F)(F)CO)s2)C1 [Example I-46, 2,2-difluoro-3-((1S,3R)-3-methyl-1-(2-(((S)-1-propylpyrrolidin-3-yl)methyl)thiazol-5-yl)-1,3,4,9-tetrahydro-2H-pyrido[3,4-b]indol-2-yl)propan-1-ol] | ++ (estrogen receptor antagonism having (i) between 10% and 80% increase in the E2-normalized signal in the AP assay (agonist mode) and (ii) between 10% and 80% reduction in the E2-normalized signal in the AP assay (antagonist mode)) |
| C[C@@H]1Cc2c([nH]c3ccccc23)[C@@H](c2cnc(N[C@@H]3CN(CCCF)C[C@@H]3F)s2)N1CC(F)(F)CO [Example I-72, 2,2-difluoro-3-[(1S,3R)-1-[2-[[(3R,4S)-4-fluoro-1-(3-fluoropropyl)pyrrolidin-3-yl]amino]thiazol-5-yl]-3-methyl-1,3,4,9-tetrahydropyrido[3,4-b]indol-2-yl]propan-1-ol] | ++ (estrogen receptor antagonism having (i) between 10% and 80% increase in the E2-normalized signal in the AP assay (agonist mode) and (ii) between 10% and 80% reduction in the E2-normalized signal in the AP assay (antagonist mode)) |
| C[C@@H]1Cc2c([nH]c3ccccc23)[C@@H](c2cnc(N[C@H]3CN(CCCF)C[C@@H]3F)s2)N1CC(F)(F)CO [Example I-65, 2,2-difluoro-3-((1S,3R)-1-(2-(((3S,4S)-4-fluoro-1-(3-fluoropropyl)pyrrolidin-3-yl)amino)thiazol-5-yl)-3-methyl-1,3,4,9-tetrahydro-2H-pyrido[3,4-b]indol-2-yl)propan-1-ol] | + (estrogen receptor agonism having (i) at least 80% increase in the E2-normalized signal in the AP assay (agonist mode) and (ii) no more than 80% reduction in the E2-normalized signal in the AP assay (antagonist mode)) |

From patent US20260055103A1, “2,3,4,9-TETRAHYDRO-1H-PYRIDO[3,4-B]INDOLE DERIVATIVES AS ESTROGEN RECEPTOR MODULATORS FOR THE TREATMENT OF CANCER” (Olema Pharmaceuticals, Inc., priority 2022, published 2026)
